Key:
Test in all cases: Large panel kinase profiling
Format in all cases: biochemical
Conditions in all cases: 1 μM test article, 1 mM ATP
[1] = biological target: ABL2 (Homo sapiens, UniProt P42684)
Summary of the method: (§1)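 With ATP fixed at 1 mM, each kinase was exposed to 1 μM compound in a PhosphoSens CSox-Sensor reaction. Sealed plates were incubated at 30° C. and read in kinetic mode.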

[2] = biological target: T1, STK17B/DRAK2 (Homo sapiens, UniProt O94768)
T1 construct: AssayQuant Technologies, Inc. (contract assay)
T1 sequence (O94768 1-372): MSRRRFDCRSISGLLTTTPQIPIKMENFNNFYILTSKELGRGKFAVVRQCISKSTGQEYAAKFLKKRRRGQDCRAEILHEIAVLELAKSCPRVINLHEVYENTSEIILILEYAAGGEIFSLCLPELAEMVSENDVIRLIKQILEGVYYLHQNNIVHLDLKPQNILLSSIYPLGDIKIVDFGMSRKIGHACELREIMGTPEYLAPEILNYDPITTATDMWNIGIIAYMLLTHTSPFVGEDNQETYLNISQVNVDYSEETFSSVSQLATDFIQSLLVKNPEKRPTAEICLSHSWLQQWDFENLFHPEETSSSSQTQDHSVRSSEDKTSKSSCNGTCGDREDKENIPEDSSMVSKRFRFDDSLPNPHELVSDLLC
Summary of the method: as §1

[3] = biological target: T2, CDK4/D3 (Homo sapiens, UniProt P11802)
T2 construct: AssayQuant Technologies, Inc. (ran the panel)
T2 sequence (P11802 whole entry, species assumed): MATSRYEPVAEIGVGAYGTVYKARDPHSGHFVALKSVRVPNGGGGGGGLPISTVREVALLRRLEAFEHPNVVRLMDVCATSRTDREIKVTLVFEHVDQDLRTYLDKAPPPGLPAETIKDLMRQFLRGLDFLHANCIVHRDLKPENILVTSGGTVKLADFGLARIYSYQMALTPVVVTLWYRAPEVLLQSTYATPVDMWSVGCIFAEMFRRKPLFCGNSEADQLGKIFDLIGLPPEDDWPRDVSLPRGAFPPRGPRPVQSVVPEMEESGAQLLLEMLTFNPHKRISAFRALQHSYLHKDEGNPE
T2 sequence (P30281 whole entry partner, species assumed): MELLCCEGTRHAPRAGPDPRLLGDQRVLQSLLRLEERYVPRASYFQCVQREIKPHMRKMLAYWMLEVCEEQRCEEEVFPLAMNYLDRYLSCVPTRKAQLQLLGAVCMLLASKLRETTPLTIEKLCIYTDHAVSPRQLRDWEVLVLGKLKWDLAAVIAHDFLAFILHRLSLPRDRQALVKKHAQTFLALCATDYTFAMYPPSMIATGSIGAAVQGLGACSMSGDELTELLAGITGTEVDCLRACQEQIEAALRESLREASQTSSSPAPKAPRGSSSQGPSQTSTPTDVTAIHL
Summary of the method: as §1

[4] = biological target: T3, IGF1R (Homo sapiens, UniProt P08069)
T3 construct: AssayQuant Technologies, Inc. (service provider)
T3 sequence (P08069 31-1367, species assumed): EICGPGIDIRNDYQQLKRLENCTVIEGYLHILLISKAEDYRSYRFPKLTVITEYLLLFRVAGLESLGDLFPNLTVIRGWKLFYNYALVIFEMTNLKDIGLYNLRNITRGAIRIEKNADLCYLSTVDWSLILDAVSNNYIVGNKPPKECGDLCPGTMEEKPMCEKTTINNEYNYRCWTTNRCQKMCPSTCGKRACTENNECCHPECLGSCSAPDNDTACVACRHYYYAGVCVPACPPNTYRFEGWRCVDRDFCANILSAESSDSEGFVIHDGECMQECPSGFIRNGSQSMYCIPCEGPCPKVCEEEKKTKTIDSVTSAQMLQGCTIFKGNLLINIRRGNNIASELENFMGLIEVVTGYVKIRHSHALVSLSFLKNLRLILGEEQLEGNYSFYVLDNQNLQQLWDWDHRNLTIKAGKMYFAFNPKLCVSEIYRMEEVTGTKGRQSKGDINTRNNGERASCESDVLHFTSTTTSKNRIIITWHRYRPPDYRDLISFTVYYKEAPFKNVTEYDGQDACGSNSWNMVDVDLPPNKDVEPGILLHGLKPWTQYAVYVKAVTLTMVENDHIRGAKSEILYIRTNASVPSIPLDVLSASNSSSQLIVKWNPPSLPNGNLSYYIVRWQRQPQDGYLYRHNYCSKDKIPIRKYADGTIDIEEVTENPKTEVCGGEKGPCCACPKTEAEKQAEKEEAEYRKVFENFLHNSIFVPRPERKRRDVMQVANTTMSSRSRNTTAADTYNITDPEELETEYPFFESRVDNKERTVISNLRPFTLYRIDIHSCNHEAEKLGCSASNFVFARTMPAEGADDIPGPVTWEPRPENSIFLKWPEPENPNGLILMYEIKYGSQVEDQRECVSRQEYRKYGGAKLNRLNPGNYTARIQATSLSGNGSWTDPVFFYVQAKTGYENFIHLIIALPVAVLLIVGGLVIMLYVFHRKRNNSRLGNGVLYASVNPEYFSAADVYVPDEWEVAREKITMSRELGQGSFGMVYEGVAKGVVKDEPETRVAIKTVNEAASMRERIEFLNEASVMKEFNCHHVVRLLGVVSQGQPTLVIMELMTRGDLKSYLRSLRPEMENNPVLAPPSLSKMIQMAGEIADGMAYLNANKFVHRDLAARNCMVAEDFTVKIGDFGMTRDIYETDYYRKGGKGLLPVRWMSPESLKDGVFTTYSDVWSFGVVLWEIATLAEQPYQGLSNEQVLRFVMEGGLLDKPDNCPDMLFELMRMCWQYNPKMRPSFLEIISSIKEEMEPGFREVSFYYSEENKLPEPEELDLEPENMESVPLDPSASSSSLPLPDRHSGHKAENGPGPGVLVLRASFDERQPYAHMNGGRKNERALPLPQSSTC
Summary of the method: as §1

[5] = biological target: T4, NEK3 (Homo sapiens, UniProt P51956)
T4 construct: AssayQuant Technologies, Inc. (assay service)
T4 sequence (P51956 1-506): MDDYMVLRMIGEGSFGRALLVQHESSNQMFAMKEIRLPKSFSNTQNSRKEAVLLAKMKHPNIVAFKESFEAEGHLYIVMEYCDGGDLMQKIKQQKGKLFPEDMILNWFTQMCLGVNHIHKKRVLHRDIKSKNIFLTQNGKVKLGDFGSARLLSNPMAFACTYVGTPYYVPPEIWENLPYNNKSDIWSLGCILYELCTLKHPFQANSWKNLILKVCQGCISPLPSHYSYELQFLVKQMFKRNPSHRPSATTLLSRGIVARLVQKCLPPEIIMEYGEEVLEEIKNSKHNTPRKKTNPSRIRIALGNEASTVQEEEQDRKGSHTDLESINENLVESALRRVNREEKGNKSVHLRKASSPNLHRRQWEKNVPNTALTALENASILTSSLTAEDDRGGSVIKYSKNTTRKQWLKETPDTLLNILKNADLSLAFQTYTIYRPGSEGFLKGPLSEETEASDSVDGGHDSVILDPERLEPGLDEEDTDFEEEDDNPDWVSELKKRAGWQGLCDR
Summary of the method: as §1

[6] = biological target: T5, GRK3 (Homo sapiens, UniProt P35626)
T5 construct: AssayQuant Technologies, Inc. (service provider)
T5 sequence (P35626 1-688): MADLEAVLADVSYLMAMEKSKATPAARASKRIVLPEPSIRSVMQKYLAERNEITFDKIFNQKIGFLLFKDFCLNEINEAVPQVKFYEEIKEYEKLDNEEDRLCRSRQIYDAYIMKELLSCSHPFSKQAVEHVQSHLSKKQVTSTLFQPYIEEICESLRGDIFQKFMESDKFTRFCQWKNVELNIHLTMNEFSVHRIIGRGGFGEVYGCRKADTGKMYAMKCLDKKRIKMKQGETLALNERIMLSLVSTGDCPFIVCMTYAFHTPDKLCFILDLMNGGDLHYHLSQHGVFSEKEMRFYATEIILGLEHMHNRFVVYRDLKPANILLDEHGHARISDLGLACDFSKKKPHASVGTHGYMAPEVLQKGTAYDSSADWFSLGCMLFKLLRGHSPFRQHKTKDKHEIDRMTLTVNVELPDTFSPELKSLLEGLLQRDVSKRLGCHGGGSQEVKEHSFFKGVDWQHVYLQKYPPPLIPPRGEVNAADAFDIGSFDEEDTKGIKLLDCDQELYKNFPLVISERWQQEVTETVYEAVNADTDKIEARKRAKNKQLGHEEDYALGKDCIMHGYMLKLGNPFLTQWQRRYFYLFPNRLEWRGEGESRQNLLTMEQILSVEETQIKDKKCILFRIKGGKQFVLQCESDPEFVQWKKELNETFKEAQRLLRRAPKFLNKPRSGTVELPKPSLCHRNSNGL
Summary of the method: as §1

[7] = biological target: T6, CAMK4 (Homo sapiens, UniProt Q16566)
T6 construct: AssayQuant Technologies, Inc. (ran the panel)
T6 sequence (Q16566 1-473): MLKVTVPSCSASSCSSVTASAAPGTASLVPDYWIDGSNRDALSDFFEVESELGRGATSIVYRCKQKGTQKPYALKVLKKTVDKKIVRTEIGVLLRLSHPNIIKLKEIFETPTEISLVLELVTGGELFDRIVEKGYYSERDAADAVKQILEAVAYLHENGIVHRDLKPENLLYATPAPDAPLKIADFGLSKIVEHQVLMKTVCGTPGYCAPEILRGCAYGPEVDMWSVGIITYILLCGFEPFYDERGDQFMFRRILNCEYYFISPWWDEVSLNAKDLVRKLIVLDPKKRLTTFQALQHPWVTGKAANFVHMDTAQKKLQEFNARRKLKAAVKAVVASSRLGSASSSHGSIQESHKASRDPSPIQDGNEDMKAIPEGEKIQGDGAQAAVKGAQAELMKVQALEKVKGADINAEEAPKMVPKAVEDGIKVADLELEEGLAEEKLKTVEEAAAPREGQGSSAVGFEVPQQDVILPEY
Summary of the method: as §1

[8] = biological target: T7, GSK3A (Homo sapiens, UniProt P49840)
T7 construct: AssayQuant Technologies, Inc. (service provider)
T7 sequence (P49840 whole entry, species assumed): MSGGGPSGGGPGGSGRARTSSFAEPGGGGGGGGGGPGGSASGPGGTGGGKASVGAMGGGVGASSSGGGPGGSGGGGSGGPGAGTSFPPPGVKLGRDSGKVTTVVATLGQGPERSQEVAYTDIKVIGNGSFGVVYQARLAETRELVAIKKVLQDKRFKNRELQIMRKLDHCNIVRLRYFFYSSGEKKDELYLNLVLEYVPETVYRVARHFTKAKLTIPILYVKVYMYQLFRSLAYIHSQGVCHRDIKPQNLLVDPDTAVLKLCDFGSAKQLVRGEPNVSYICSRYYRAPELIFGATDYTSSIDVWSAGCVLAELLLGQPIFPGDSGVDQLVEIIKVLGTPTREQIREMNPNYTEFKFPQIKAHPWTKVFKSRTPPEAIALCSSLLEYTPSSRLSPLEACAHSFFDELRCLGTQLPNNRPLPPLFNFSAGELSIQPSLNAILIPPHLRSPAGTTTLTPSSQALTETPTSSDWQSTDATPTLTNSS
Summary of the method: as §1

[9] = biological target: ROCK1 (Homo sapiens, UniProt Q13464)
ROCK1, sequence (Q13464 whole entry, species assumed): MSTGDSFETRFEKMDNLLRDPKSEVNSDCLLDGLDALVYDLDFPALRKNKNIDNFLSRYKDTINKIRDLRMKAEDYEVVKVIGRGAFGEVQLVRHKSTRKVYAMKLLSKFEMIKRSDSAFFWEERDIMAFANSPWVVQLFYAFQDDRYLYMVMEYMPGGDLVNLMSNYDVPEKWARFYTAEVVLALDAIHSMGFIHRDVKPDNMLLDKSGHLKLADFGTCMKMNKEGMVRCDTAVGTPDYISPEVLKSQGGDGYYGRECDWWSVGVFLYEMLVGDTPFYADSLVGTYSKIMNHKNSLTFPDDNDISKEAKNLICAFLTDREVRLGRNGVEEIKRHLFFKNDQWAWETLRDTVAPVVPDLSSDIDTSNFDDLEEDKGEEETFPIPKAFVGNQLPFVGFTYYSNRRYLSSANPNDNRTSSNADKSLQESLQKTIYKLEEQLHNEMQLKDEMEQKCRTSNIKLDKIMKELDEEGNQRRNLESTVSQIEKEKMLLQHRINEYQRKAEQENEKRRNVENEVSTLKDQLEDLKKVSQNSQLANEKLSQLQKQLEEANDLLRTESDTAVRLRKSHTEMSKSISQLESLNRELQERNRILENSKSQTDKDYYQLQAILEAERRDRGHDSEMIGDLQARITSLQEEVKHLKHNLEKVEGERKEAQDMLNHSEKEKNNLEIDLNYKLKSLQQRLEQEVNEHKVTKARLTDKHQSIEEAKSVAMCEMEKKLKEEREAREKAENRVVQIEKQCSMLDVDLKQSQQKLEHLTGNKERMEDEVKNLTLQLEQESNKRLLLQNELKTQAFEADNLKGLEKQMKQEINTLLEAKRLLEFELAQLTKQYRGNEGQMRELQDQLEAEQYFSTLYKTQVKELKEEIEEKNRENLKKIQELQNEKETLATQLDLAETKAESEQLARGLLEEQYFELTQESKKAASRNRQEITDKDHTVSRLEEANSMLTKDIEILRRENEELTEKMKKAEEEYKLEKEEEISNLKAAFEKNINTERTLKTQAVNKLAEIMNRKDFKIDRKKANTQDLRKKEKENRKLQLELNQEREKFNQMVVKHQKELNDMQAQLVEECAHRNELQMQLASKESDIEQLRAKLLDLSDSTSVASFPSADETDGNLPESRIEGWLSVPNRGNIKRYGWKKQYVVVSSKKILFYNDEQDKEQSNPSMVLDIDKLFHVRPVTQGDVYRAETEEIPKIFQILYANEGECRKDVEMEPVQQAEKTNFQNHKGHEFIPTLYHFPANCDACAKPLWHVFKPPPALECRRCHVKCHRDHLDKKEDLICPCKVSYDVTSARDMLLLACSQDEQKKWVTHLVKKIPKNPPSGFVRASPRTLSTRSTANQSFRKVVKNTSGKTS
Summary of the method: as §1

ABL2, sequence (P42684 whole entry): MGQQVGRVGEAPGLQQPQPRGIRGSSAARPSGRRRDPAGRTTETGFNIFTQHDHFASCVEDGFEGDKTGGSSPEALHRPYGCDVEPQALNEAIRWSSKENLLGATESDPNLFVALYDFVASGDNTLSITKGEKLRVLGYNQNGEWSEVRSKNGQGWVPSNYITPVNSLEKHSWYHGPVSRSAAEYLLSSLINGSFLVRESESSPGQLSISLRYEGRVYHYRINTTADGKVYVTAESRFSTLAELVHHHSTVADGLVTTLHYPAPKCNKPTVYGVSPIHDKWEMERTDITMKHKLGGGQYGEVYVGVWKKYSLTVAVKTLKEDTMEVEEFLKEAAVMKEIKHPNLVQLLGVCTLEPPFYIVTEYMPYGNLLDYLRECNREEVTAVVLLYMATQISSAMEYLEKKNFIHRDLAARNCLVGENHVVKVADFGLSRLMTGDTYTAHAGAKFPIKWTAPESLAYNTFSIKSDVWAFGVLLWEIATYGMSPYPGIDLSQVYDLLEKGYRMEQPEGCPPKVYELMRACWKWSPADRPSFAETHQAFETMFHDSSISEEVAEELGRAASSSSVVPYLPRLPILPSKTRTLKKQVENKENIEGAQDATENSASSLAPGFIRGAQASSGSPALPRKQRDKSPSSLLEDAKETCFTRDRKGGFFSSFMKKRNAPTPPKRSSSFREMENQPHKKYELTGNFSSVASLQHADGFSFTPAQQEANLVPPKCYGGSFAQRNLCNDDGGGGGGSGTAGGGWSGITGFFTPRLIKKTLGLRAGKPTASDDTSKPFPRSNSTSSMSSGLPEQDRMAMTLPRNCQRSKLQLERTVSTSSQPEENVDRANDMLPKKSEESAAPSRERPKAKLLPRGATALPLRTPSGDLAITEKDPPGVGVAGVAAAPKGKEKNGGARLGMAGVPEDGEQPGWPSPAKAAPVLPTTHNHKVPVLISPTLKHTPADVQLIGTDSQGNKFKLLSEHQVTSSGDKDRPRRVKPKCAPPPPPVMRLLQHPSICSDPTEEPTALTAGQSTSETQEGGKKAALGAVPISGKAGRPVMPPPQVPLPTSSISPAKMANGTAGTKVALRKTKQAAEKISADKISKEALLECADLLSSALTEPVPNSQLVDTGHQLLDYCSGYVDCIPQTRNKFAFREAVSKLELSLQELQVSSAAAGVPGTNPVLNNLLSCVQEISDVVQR

Structure (SMILES)	inhibition at 1 µM [1]	inhibition at 1 µM [2]	inhibition at 1 µM [3]	inhibition at 1 µM [4]	inhibition at 1 µM [5]	inhibition at 1 µM [6]	inhibition at 1 µM [7]	inhibition at 1 µM [8]	inhibition at 1 µM [9]
C=CC(=O)N1CCCC(c2c(F)cc(C(N)=O)c3[nH]c4c(c23)CCCCC4)C1 (single isomer, unassigned) [Compound 5-6]	-29.7%	0.3%	-4.9%	-16.7%	-21.2%	-25.6%	15.7%	2.9%	3.5%
C=CC(=O)N1CCC[C@@H](c2c(F)cc(C(N)=O)c3[nH]c4c(c23)CC2(CC4)CC2)C1 [Compound 6-2, (S)-5-(1-acryloylpiperidin-3-yl)-6-fluoro-1,2,4,9-tetrahydrospiro[carbazole-3,1′-cyclopropane]-8-carboxamide]	-1.3%	-26.9%	-13%	-11.6%	-8.1%	-48.3%	26.6%	-5.1%	2.5%
C=CC(=O)N1CCC[C@@H](c2c(F)cc(C(N)=O)c3[nH]c4c(c23)CCC4)C1 [Compound 10-2, (S)-8-(1-acryloylpiperidin-3-yl)-7-fluoro-1,2,3,4-tetrahydrocyclo-penta[b]indole-5-carboxamide]	1.9%	-23.7%	-19.5%	-26.1%	-5%	-42.7%	15.3%	-37.7%	13.7%
